Drawing on patent publication US20070270475A1, “4-Methoxy-Pyrrolidine-2-Carboxylic Acid Compounds and Derivatives Thereof as Hepatitis C Virus Inhibitors” (priority 2004, published 2007), this text covers IC50 for 17 compounds.

This assay deals with T1, HCV RNA Polymerase, recombinant NS5B with C-terminal 21 amino acid deletion, genotype 1a (strain H77) (Hepatitis C virus genotype 1a, UniProt P27958).
T1 construct: fused on or other part: C-terminal 6His-tag
T1 sequence (P27958 2601-2990 limits assumed, stated change not applied): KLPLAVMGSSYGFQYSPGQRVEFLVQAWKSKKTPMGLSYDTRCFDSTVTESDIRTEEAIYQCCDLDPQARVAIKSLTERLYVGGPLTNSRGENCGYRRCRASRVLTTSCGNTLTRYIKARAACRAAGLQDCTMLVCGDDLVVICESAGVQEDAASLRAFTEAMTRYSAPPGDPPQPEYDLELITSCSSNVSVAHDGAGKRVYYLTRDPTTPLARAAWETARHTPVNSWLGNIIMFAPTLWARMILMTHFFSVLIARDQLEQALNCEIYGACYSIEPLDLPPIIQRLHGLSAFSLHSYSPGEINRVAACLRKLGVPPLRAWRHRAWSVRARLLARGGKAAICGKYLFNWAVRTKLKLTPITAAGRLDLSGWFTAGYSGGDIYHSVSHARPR
As to the kind of experiment: In vitro HCV RNA-dependent RNA polymerase inhibition assay, genotype 1a C-terminally truncated (delta21) enzyme. The assay is classed as biochemical, HCV genotype 1a. To be noted: genotype 1a NS5B delta21, 25 nM enzyme; read-out: IC50 in delta-21 1a enzyme inhibition assay. The text has this:
In Vitro Detection of inhibitors of HCV RNA-Dependent RNA Polymerase Activity
Incorporation of [^33P]-GMP into RNA was followed by absorption of the biotin labelled RNA polymer by streptavidin containing SPA beads. A synthetic template consisting of biotinylated 13mer-oligoG hybridised to polyrC was used as a homopolymer substrate.
a) Genotype 1a C-Terminally Truncated (delta21) Enzyme
HCV RNA Polymerase [Recombinant NS5B with C-terminal 21 amino acid deletion and C-terminal 6His-tag (Ferrari et al. J. Virol. 73(2), 1999, 1649. ‘Characterization of soluble hepatitis C virus RNA-dependent RNA polymerase expressed in Escherichia coli.’) expressed in E. coli and purified to homogeneity] was added to 25 nM final concentration. Polymerase of genotype la was from strain H77 (Yanagi, M., Purcell, R. H., Emerson, S. U. & Bukh, J. (1997), Proceedings of the National Academy of Sciences, USA 94, 8738-8743) containing a sequence change from valine to isoleucine at position 180.
Reaction Conditions were 25 nM enzyme, 1.5 μg/ml oligo-rG13/poly-rC and 0.2 μCi α-^33P-GTP in 0.5 μM GTP (20 Ci/mMol) , 20 mM Tris pH 7.5, 23 mM NaCl, 3 mM DTT, 5 mM MgCl2, 1 mM MnCl2.
Enzyme was diluted to 500 nM concentration in 20 mM Tris-HCl, pH 7.5, 25 mM NaCl and 3 mM DTT.
4× concentrated assay buffer mix was prepared using 1M Tris-HCl, pH7.5 (1 mL), 5M NaCl (0.25 mL), 1M DTT (0.12 mL) and Water (8.63 mL), Total 10 mL.
2× concentrated first reagent was prepared using 4× concentrated assay buffer mix (5 μL), 40 μ/μL RNasin (0.1 μL), 20 μg/mL polyrC/biotinylated-oligorG (1.6 μL), 500 nM enzyme (1 μL ) and Water (2.3 μL), Total 10 μL/well.
2× concentrated second reagent was prepared using 1 M MgCl2 ([…]), 1M MnCl2 (0.02 μL), 25 μM GTP (0.4 μL), α-[^33P]-GTP (10 μCi/μL, 0.02 μL) and water (9.5 μL), Total 10 μL/well.
The assay was set up using compound (1 μL in 100% DMSO), first reagent (10 μL), and second reagent (10 μL), Total 21 μL.
The reaction was performed in a U-bottomed, white, 96-well plate. The reaction was mixed on a plate-shaker, after addition of the Enzyme, and incubated for 1 h at 22° C. After this time, the reaction was stopped by addition of 60 μL 1.5 mg/ml streptavidin SPA beads (Amersham) in 0.1 M EDTA in PBS. The beads were incubated with the reaction mixture for 1 h at 22° C. after which 100 μL 0.1 M EDTA in PBS was added. The plate was sealed, mixed centrifuged and incorporated radioactivity determined by counting in a Trilux (Wallac) or Topcount (Packard) Scintillation Counter.
After subtraction of background levels without enzyme, any reduction in the amount of radioactivity incorporated in the presence of a compound, compared to that in the absence, was taken as a measure of the level of inhibition. Ten concentrations of compounds were tested in three- or fivefold dilutions. From the counts per minute, percentage of inhibition at highest concentration tested or IC50s for the compounds were calculated using GraFit 3, GraFit 4 or GraFit 5 (Erithacus Software Ltd.) software packages or a data evaluation macro for Excel based on XLFit software (IDBS).
In the case of `COC[C@H]1C[C@@](CC(C)C)(C(=O)O)N(C(=O)c2ccc(C(C)(C)C)c(OC)c2)[C@H]1c1nccs1` (racemic) [Compound A, rel-(2S,4S,5R)-2-isobutyl-1-(3-methoxy-4-tert-butylbenzoyl)-4-methoxymethyl-5-(1,3-thiazol-2-yl)pyrrolidine-2-carboxylic acid, reference compound], the IC50 is over 1000 nM.
To `COC[C@H]1C[C@@](CC(C)C)(C(=O)O)N(C(=O)c2ccc(C(C)(C)C)c(OC)c2)[C@H]1c1ncc(C)s1` (racemic) [Compound C, rel-(2S,4S,5R)-2-isobutyl-1-(3-methoxy-4-tert-butylbenzoyl)-4-methoxymethyl-5-(5-methyl-1,3-thiazol-2-yl)pyrrolidine-2-carboxylic acid, reference compound] belongs over 1000 nM.
In the case of `COC[C@H]1C[C@@](Cc2ccccc2)(C(=O)O)N(C(=O)c2ccc(C(C)(C)C)c(OC)c2)[C@H]1c1nccs1` (racemic) [Compound E, rel-(2R,4S,5R)-2-benzyl-1-(3-methoxy-4-tert-butylbenzoyl)-4-methoxymethyl-5-(1,3-thiazol-2-yl)-pyrrolidine-2-carboxylic acid, reference compound], the IC50 was over 1000 nM.
To `COC[C@H]1C[C@@](Cc2cscn2)(C(=O)O)N(C(=O)c2ccc(C(C)(C)C)c(OC)c2)[C@H]1c1ncc(C)s1` (racemic) [Example 1, rel-(2R,4S,5R)-1-(3-Methoxy-4-tert-butylbenzoyl)-4-(methoxymethyl)-5-(5-methyl-1,3-thiazol-2-yl)-2-(1,3-thiazol-4-ylmethyl)pyrrolidine-2-carboxylic acid] belongs under 750 nM.
To `COC[C@H]1C[C@@](Cc2cscn2)(C(=O)O)N(C(=O)c2ccc(C(C)(C)C)c(OC)c2)[C@H]1c1nccs1` (racemic) [Example 3, rel-(2R,4S,5R)-1-(3-Methoxy-4-tert-butylbenzoyl)-4-(methoxymethyl)-5-(1,3-thiazol-2-yl)-2-(1,3-thiazol-4-ylmethyl)pyrrolidine-2-carboxylic acid] belongs under 750 nM; to `COC[C@H]1C[C@@](Cc2ccsn2)(C(=O)O)N(C(=O)c2ccc(C(C)(C)C)c(OC)c2)[C@H]1c1nccs1` (racemic) [Example 4, rel-(2R,4S,5R)-1-(3-Methoxy-4-tert-butylbenzoyl)-4-(methoxymethyl)-5-(1,3-thiazol-2-yl)-2-(1,2-thiazol-3-ylmethyl)pyrrolidine-2-carboxylic acid], under 750 nM; to `COC[C@H]1C[C@@](Cn2cccn2)(C(=O)O)N(C(=O)c2ccc(C(C)(C)C)c(OC)c2)[C@H]1c1nccs1` (racemic) [Example 6, rel-(2R,4S,5R)-1-(3-Methoxy-4-tert-butylbenzoyl)-4-(methoxymethyl)-2-(1H-pyrazol-1-ylmethyl)-5-(1,3-thiazol-2-yl)pyrrolidine-2-carboxylic acid], under 750 nM.
For the compound `COC[C@H]1C[C@@](Cc2nccs2)(C(=O)O)N(C(=O)c2ccc(C(C)(C)C)c(OC)c2)[C@H]1c1ncc(C)s1` (racemic) [Example 8, rel-(2R,4S,5R)-1-(3-Methoxy-4-tert-butylbenzoyl)-4-(methoxymethyl)-5-(5-methyl-1,3-thiazol-2-yl)-2-(1,3-thiazol-2-ylmethyl)pyrrolidine-2-carboxylic acid], the IC50 is under 750 nM.
To `COC[C@H]1C[C@@](Cc2ccsn2)(C(=O)O)N(C(=O)c2ccc(C(C)(C)C)c(OC)c2)[C@H]1c1ncc(C)s1` (racemic) [Example 9, rel-(2R,4S,5R)-1-(3-Methoxy-4-tert-butylbenzoyl)-4-(methoxymethyl)-5-(5-methyl-1,3-thiazol-2-yl)-2-(1,2-thiazol-3-ylmethyl)pyrrolidine-2-carboxylic acid] belongs under 750 nM; to `COC[C@H]1C[C@@](Cn2cccn2)(C(=O)O)N(C(=O)c2ccc(C(C)(C)C)c(OC)c2)[C@H]1c1ncc(C)s1` (racemic) [Example 10, rel-(2R,4S,5R)-1-(3-Methoxy-4-tert-butylbenzoyl)-4-(methoxymethyl)-5-(5-methyl-1,3-thiazol-2-yl)-2-(1H-pyrazol-1-ylmethyl)pyrrolidine-2-carboxylic acid], under 750 nM.
In the case of `COC[C@H]1C[C@@](Cn2cccn2)(C(=O)O)N(C(=O)c2ccc(C(C)(C)C)c(OC)c2)[C@H]1c1nccs1` (single isomer, unassigned) [Example 7], the IC50 is under 750 nM.
To `COCC1CC(CC(C)C)(C(=O)O)N(C(=O)c2ccc(C(C)(C)C)c(OC)c2)C1c1ncc(C)s1` (single isomer, unassigned; enantiomer a) [Compound D, reference compound] belongs 750 to 1000 nM; to `COC[C@H]1C[C@@](Cc2cscn2)(C(=O)O)N(C(=O)c2ccc(C(C)(C)C)c(OC)c2)[C@H]1c1ncc(C)s1` (single isomer, unassigned; enantiomer a) [Example 2], under 750 nM.
For the compound `COC[C@H]1C[C@@](Cc2ccsn2)(C(=O)O)N(C(=O)c2ccc(C(C)(C)C)c(OC)c2)[C@H]1c1nccs1` (single isomer, unassigned; enantiomer a) [Example 5], the IC50 is under 750 nM.
To `COC[C@H]1C[C@@](Cn2cccn2)(C(=O)O)N(C(=O)c2ccc(C(C)(C)C)c(OC)c2)[C@H]1c1ncc(C)s1` (single isomer, unassigned; enantiomer a) [Example 11] belongs under 750 nM; to `COC[C@H]1C[C@@](Cc2cscn2)(C(=O)O)N(C(=O)c2ccc(C(C)(C)C)c(OC)c2)[C@H]1c1nccs1` (single isomer, unassigned; enantiomer a) [Example 12], under 750 nM; to `COC[C@H]1C[C@@](CC(C)C)(C(=O)O)N(C(=O)c2ccc(C(C)(C)C)c(OC)c2)[C@H]1c1nccs1` [Compound B, (2S,4S,5R)-2-isobutyl-1-(3-methoxy-4-tert-butylbenzoyl)-4-methoxymethyl-5-(1,3-thiazol-2-yl)pyrrolidine-2-carboxylic acid, reference compound], over 1000 nM.
